In patent US20140128339A1, “2'-METHYL SUBSTITUTED NUCLEOSIDE DERIVATIVES AND METHODS OF USE THEREOF FOR THE TREATMENT OF VIRAL DISEASES” (priority 2012, published 2014):

What was measured:
replicon cells (1b-Con1) = assay: microbe, parasite or virus in culture; format: cell-based, HCV; conditions: Hepatitis C virus, 72 h; 1b-Con1 replicon cells, three days post-dosing, Taqman RT-PCR with GAPDH RNA as control
replicon cells = conditions: CC50, MTS assay three days post dosing in replicon cells
[1] = molecular target: T1, HCV NS5B RNA-dependent RNA polymerase (1b-BKΔ55) (Hepatitis C virus genotype 1b, UniProt P26663); assay: Inhibition of HCV NS5B polymerase by nucleoside triphosphate analogs (radiolabeled nucleotide incorporation assay); format: biochemical
T1 construct: 5 nM NS5B (1b-BKΔ55) enzyme
Procedure: To measure inhibition of the enzymatic activity of the HCV NS5B RNA-dependent RNA polymerase by the nucleoside triphosphate compounds of the present invention, a radiolabeled nucleotide incorporation assay was used. This assay is a modified version of the assay described in International Publication No. WO2002/057287. Briefly, 50 μL reactions containing 20 mM HEPES (pH 7.3); 7.5 mM DTT; 20 units/ml RNasIN; 1 μM each of ATP, GTP, UTP and CTP; 20 μCi/mL [^33P]-CTP; 10 mM MgCl; 60 mM NaCl; 100 μg/ml BSA; […] heteropolymer RNA template; and 5 nM NS5B (1b-BKΔ55) enzyme are incubated at room temperature for 1 hour. The assay is then terminated by the addition of 500 mM EDTA (50 μl). The reaction mixture is transferred to a Millipore DE81 filter plate and the incorporation of labeled CTP is determined using Packard TopCount. Compound IC50 values can then be calculated from experiments with 10 serial 3-fold dilutions of the inhibitor in duplicate.
Data was obtained using this method for the NTP analogs of selected compounds below of the present invention, and is set forth below. […] Data is also presented for comparative compounds, labeled as Compound B and Compound C.

T1 sequence (P26663 2420-2955, stated change not applied): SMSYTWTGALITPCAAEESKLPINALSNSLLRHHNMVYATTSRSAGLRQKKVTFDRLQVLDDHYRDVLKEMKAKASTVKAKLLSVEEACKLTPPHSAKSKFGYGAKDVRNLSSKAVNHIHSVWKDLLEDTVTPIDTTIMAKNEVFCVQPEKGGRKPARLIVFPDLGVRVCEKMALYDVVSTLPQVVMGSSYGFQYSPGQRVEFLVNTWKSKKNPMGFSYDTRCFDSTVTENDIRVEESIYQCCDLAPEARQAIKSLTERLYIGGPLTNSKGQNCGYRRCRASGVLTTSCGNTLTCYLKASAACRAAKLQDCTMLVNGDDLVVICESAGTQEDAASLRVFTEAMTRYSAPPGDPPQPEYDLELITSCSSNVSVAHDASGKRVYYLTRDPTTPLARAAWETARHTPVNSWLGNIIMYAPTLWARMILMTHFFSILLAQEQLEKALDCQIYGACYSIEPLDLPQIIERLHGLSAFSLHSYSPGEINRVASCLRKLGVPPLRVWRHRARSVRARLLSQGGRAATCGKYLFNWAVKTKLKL

Compound	EC50 (replicon cells (1b-Con1)) [nM]	Cytotoxicity (replicon cells) [µM]	Ki [1] [µM]
CC(C)OC(=O)[C@H](C)N[P@@](=O)(OC[C@H]1OC(n2ccc(N)nc2=O)[C@](C)(C#N)[C@@H]1OC(=O)C(C)C)Oc1ccccc1 (some centres unmarked) [Compound 7]	425	>100	
CCCCCCCCCCCCCCCCCC(=O)O[C@@H]1[C@@H](CO[P@](=O)(N[C@@H](C)C(=O)OC(C)C)Oc2ccccc2)OC(n2ccc(N)nc2=O)[C@]1(C)C#N (some centres unmarked) [Compound 8]	5090	6.54	
CC(C)OC(=O)[C@H](C)N[P@@](=O)(OC[C@H]1OC(n2ccc(NC(=O)C(C)C)nc2=O)[C@](C)(C#N)[C@@H]1O)Oc1ccccc1 (some centres unmarked) [Compound 10]	9500	10	
CCCCCCCCCCCCCCCCCC(=O)Nc1ccn(C2O[C@H](CO[P@](=O)(N[C@@H](C)C(=O)OC(C)C)Oc3ccccc3)[C@@H](O)[C@@]2(C)C#N)c(=O)n1 (some centres unmarked) [Compound 11]	1800	25	
CC(C)OC(=O)[C@H](C)NP(=O)(OC[C@H]1O[C@@H](n2ccc(NC(=O)C(C)C)nc2=O)[C@](C)(C#N)[C@@H]1OC(=O)C(C)C)Oc1ccccc1 (some centres unmarked) [Compound 12]	10000	76	
CCCCCCCCCCCCCCCCCC(=O)Nc1ccn(C2O[C@H](CO[P@](=O)(N[C@@H](C)C(=O)OC(C)C)Oc3ccccc3)[C@@H](OC(=O)CCCCCCCCCCCCCCCCC)[C@@]2(C)C#N)c(=O)n1 (some centres unmarked) [Compound 13]	> 100000	>100	
CC(C)OC(=O)[C@H](C)NP(=O)(OC[C@H]1O[C@@H](n2ccc(N)nc2=O)[C@](C)(N=[N+]=[N-])[C@@H]1OC(=O)C(C)C)Oc1ccccc1 (some centres unmarked) [Compound 15]	600	>100	
CCCC(CCC)C(=O)O[C@@H]1[C@@H](COP(=O)(N[C@@H](C)C(=O)OC(C)C)Oc2ccccc2)O[C@@H](n2ccc(N)nc2=O)[C@]1(C)N=[N+]=[N-] (some centres unmarked) [Compound 16]	100	13	
CCCCCCCCCCCCCCCCCC(=O)O[C@@H]1[C@@H](COP(=O)(N[C@@H](C)C(=O)OC(C)C)Oc2ccccc2)O[C@@H](n2ccc(N)nc2=O)[C@]1(C)N=[N+]=[N-] (some centres unmarked) [Compound 17]	8200	9.9	
CC(C)OC(=O)[C@H](C)NP(=O)(OC[C@H]1O[C@@H](n2ccc(NC(=O)C(C)C)nc2=O)[C@](C)(N=[N+]=[N-])[C@@H]1OC(=O)C(C)C)Oc1ccccc1 (some centres unmarked) [Compound 18]	15000	>100	
CC(C)OC(=O)[C@H](C)NP(=O)(OC[C@H]1O[C@@H](n2ccc(NC(=O)C(C)C)nc2=O)[C@](C)(N=[N+]=[N-])[C@@H]1O)Oc1ccccc1 (some centres unmarked) [Compound 19]	8500	>100	
CCCCCCCCCCCCCCCCCC(=O)Nc1ccn([C@@H]2O[C@H](COP(=O)(N[C@@H](C)C(=O)OC(C)C)Oc3ccccc3)[C@@H](O)[C@@]2(C)N=[N+]=[N-])c(=O)n1 (some centres unmarked) [Compound 20]	3600	>100	
CC(C)OC(=O)[C@H](C)NP(=O)(OC[C@H]1O[C@@H](n2ccc(=O)[nH]c2=O)[C@](C)(C#N)[C@@H]1OC(=O)C(C)C)Oc1ccccc1 (some centres unmarked) [Compound 23]	700	>100	
CC(C)OC(=O)[C@H](C)NP(=O)(OC[C@H]1O[C@@H](n2ccc(=O)[nH]c2=O)[C@](C)(C#N)[C@@H]1OC(=O)C1CC1)Oc1ccccc1 (some centres unmarked) [Compound 24]	6300	>100	
CC(C)OC(=O)[C@H](C)NP(=O)(OC[C@H]1O[C@@H](n2ccc(=O)[nH]c2=O)[C@](C)(C#N)[C@@H]1OC(=O)C1CCC1)Oc1ccccc1 (some centres unmarked) [Compound 25]	700	>100	
CC(C)OC(=O)O[C@@H]1[C@@H](COP(=O)(N[C@@H](C)C(=O)OC(C)C)Oc2ccccc2)O[C@@H](n2ccc(=O)[nH]c2=O)[C@]1(C)C#N (some centres unmarked) [Compound 26]	1000	>100	
CC(C)NC(=O)O[C@@H]1[C@@H](COP(=O)(N[C@@H](C)C(=O)OC(C)C)Oc2ccccc2)O[C@@H](n2ccc(=O)[nH]c2=O)[C@]1(C)C#N (some centres unmarked) [Compound 27]	> 100000	>100	
CCCCC(=O)O[C@@H]1[C@@H](COP(=O)(N[C@@H](C)C(=O)OC(C)C)Oc2ccccc2)O[C@@H](n2ccc(=O)[nH]c2=O)[C@]1(C)C#N (some centres unmarked) [Compound 28]	700	76	
CCCC(CCC)C(=O)O[C@@H]1[C@@H](COP(=O)(N[C@@H](C)C(=O)OC(C)C)Oc2ccccc2)O[C@@H](n2ccc(=O)[nH]c2=O)[C@]1(C)C#N (some centres unmarked) [Compound 29]	190	20	
C[C@@]1(N)[C@H](O)[C@@H](COP(=O)(O)OP(=O)(O)OP(=O)(O)O)O[C@H]1n1ccc(N)nc1=O [Compound 34]			0.05
C[C@@]1(N)[C@H](O)[C@@H](COP(=O)(O)OP(=O)(O)OP(=O)(O)O)O[C@H]1n1ccc(=O)[nH]c1=O [Compound 35]			4.7
C#C[C@]1(C)[C@H](O)[C@@H](COP(=O)(O)OP(=O)(O)OP(=O)(O)O)O[C@H]1n1ccc(=O)[nH]c1=O [Compound 36]			11
